How the values were obtained:
in vitro = conditions: pig
Experimental: (§1) A concentration-gradient screening strategy was employed for 141 compounds using indirect immunofluorescence assay (IFA). […] Data are mean ± SEM.
(§2) Cells were seeded in 96-well plates and grown in DMEM supplemented with 10% FBS. Upon reaching confluence, compounds were diluted to varying concentrations in 2% FBS-containing medium. Control wells contained DMEM with 0.5% DMSO. Treated cells were incubated at 37 °C in a 5% CO2 humidified environment for 48 or 72 h, followed by cytotoxicity assessment as outlined in our previous work[21]. […]

[1] = tested on: Porcine alveolar macrophages (PAM); test: in vitro
Experimental: as §1, §2

PRRSV VR2332 = test: EC50 against VR-2332 strain on PAM cells; type: cell-based; conditions: Porcine reproductive and respiratory syndrome virus
Excerpt: (§3) Supplementary Fig. 3: Cytotoxicity and Antiviral Efficacy of NTZ.
(§4) PRRSV capsid protein positive
(§5) (primary antibody SR30, green) and nuclei (DAPI, blue).

[2] = Cytotoxicity assay (CC50) in MARC-145 cells; type: cell-based; conditions: African green monkey, 48 h of exposure, CCK-8
Excerpt: Control wells contained DMEM with 0.5% DMSO.
as §3, §4, §5

[3] = tested on: PRRSV (VR-2332, GSWW-15, GSWW-18); test: Viral titers of VR-2332, GSWW-15 and GSWW-18 in Marc-145 cells; type: cell-based, Porcine Reproductive and Respiratory Syndrome Virus; conditions: all three strains
Experimental: Viral solutions were serially diluted by a factor of 10. Samples containing varying concentrations of virus (100 μL each) were combined with DMEM containing 2% FBS (100 μL) and added to wells; control wells were virus-free. […] Relative quantification qRT-PCR was used to assess PRRSV gene expression, normalized using the 2^−ΔΔCt method in Design & Analysis Software (v2.6.0). Absolute quantification qRT-PCR was used for viral copy number detection, with RNA concentration normalization prior to analysis, as described in our previous publication. Primers used included: PRRSV 5′-[…]′ and 5′-[…]-3′; Marc-145-GAPDH 5′-[…]-3′ and 5′-[…]-3′; PAM-GAPDH 5′-[…]-3′ and 5′-[…]-3′; IFNβ 5′-[…]-3′ and 5′-[…]-3′; Human-GAPDH 5′-[…]-3′ and 5′-[…]-3′.
as §3, §4, §5

PRRSV GSWW-18 strain = test: PRRSV transmission to co-housed pigs; type: in vivo, pig; conditions: 25 mg/kg, from 0 dpi; two co-house animals uninfected
Experimental: Although the replication mechanism of PRRSV in blood is not fully understood, viremia is an undoubted marker of disease severity[22],[23]. […] On the second day post-infection, we administered NTZ at dosages of 10 mg/kg or 5 mg/kg and monitored the dynamics of PRRSV in the blood within 24 h (Fig. 4b). We observed that NTZ acted swiftly. […] Further experiments explored NTZ’s role in viral transmission (Fig. 4c).
Fig. 4 NTZ inhibition of PRRSV shedding and transmission. a Viral load in blood, and shedding in oronasal and anal swabs. Viral load or shedding in blood and oronasal swabs were quantified from 2 to 4 dpi, and in anal swabs from 2 to 5 dpi. Viral copy numbers for each pig during this period are presented. b NTZ suppression of PRRSV proliferation in blood. […] Parameters were calculated using a non-compartmental analysis (NCA). Eighteen pigs were evenly divided into three dosage groups (n = 6), each housed separately, fasted for 12 h before the experiment, and monitored by professional veterinarians for welfare and enclosure cleaning to prevent coprophagia. g Tissue distribution of NTZ’s main metabolite TIZ. Tissues were collected as per Method Pharmacokinetics and Tissue Distribution of NTZ, quantifying TIZ content at various times (n = 2). […]

CC(=O)Oc1ccccc1C(=O)Nc1ncc([N+](=O)[O-])s1 [Nitazoxanide]
CC50 at 48 h (in vitro): ~44 µM | cytotoxicity (in words) [1]: low cytotoxicity | EC50 (PRRSV VR2332): ~0.67 µM | CC50 at 48 h [2]: ~44 µM | relation of concentration to viral titers [3]: negative correlation | PRRSV transmission to co-housed animals (PRRSV GSWW-18 strain): can help limit PRRSV transmission

From article PMC11156899, “High-throughput screening unveils nitazoxanide as a potent PRRSV inhibitor by targeting NMRAL1” (Nature Communications, 2024)
